Assay results: patent US20140187505A1, “Cardiac Glycosides to Treat Cystic Fibrosis and Other IL-8 Dependent Disorders” (priority 2002, published 2014)
pIC50: −log10 of the molar value. Values joined by “and” are separate entries in the source; they are usually repeats but may differ in a detail not shown here. Equal values may be shown once. Read-outs that look alike come from different tables or passages of the source.

Assays:
[1] = eluent acetonitrile/water 45:55; cited from earlier work
[2] = system: guinea-pig heart Na^+-K^+-ATPase; details: cited from earlier work
[3] = for 70 kg man; cited from earlier work
[4] = mobile phase: methanol/water 30:70; cited from earlier work
[5] = system: human vascular endothelial cells (HUVEC); details: in vitro, read-out: 50% kill concentration; cited from earlier work
[6] = system: IL-8 secretion from cystic fibrosis lung epithelial IB3-1 cells
[7] = system: HeLa cervical cancer cells; details: human
[8] = system: HeLa cervical cancer cells; test: cells; details: Homo sapiens, 24 h, read-out: IC50 dose for cell death
[9] = octanol/water (20 mM TRIS-HCl, pH 7.4); cited from earlier work
[10] = Homo sapiens, IB3-1, 48 h, read-out: IC50 nmol/L in cells
[11] = Homo sapiens, IB3-1, 48 h, read-out: IC50 (K50) for spontaneous IL-8 secretion
[12] = read-out: IC50 nmol/L in cells, 50% suppression of spontaneous IL-8 secretion, IB3-1 cells, 48 hours

| Molecule | K retentions for reversed-phase high pressure liquid chromatography [1] | ID50 [2] | RM values (lipophilicity, reversed-phase thin layer chromatography) [4] | pIC50 [6, 10] | P (partition coefficient in octanol/water system) [9] | also measured |
| --- | --- | --- | --- | --- | --- | --- |
| C[C@H]1O[C@@H](O[C@H]2[C@@H](O)C[C@H](O[C@H]3[C@@H](O)C[C@H](O[C@H]4CC[C@@]5(C)[C@H](CC[C@@H]6[C@@H]5C[C@@H](O)[C@]5(C)[C@@H](C7=CC(=O)OC7)CC[C@]65O)C4)O[C@@H]3C)O[C@@H]2C)C[C@H](O)[C@@H]1O [digoxin] | 0.50 | 0.90 ± 0.07 ×10^−4 mol l^−1 | 0.25 | 7.57 | – | Human toxicity limit [3]: 1900 nmol; Human toxicity limit, Nmol/L = nM [3]: 27.1 nM; pIC50 [5]: ~6.68; pIC50 [6, 11]: ~7.57 |
| CO[C@H]1C[C@H](O[C@H]2CC[C@@]3(C)[C@H](CC[C@@H]4[C@@H]3CC[C@]3(C)[C@@H](C5=CC(=O)OC5)[C@@H](OC(C)=O)C[C@]43O)C2)O[C@@H](C)[C@@H]1O [oleandrin] | – | – | – | 8.70 | – | Threshold concentration for an increase in cell death [7]: ca. 30 nM; pIC50 [8]: ~7.00; pIC50 [6, 11]: ~8.70 |
| C[C@]12CC[C@H](O)C[C@H]1CC[C@@H]1[C@@H]2C[C@@H](O)[C@]2(C)[C@@H](C3=CC(=O)OC3)CC[C@]12O [digoxigenin] | – | – | – | 7.47 | 13.5 ± 2.3 | – |
| C[C@@H]1O[C@@H](O[C@H]2C[C@@H](O)[C@]3(CO)[C@H]4[C@H](O)C[C@]5(C)[C@@H](C6=CC(=O)OC6)CC[C@]5(O)[C@@H]4CC[C@]3(O)C2)[C@H](O)[C@H](O)[C@H]1O [ouabain] | 0.14 | 2.28 ± 0.10 ×10^−4 mol l^−1 | −0.73 | 8.10 | 0.02 and 0.02 ± 0.00 | Threshold concentration for an increase in cell death [7]: ca. 50 nM; Human toxicity limit [3]: 1683 nmol; pIC50 [8]: ~6.70; pIC50 [5]: 6.62 and 6.45 and ~6.62 and ~6.45 |
| C[C@]12CC[C@H](O)C[C@H]1CC[C@@H]1[C@@H]2CC[C@]2(C)[C@@H](C3=CC(=O)OC3)CC[C@]12O [digitoxigenin] | 1.81 | 1.63 ± 0.06 ×10^−4 mol l^−1 | 1.03 | 7.13 | 270.0 ± 94.1 | – |
| α-Acetyldigoxin | 0.99 | 2.50 ± 0.31 ×10^−4 mol l^−1 | 0.50 | – | 54.6 ± 7.8 | – |
| CC(=O)O[C@H]1CC[C@]2(C=O)[C@H]3CC[C@]4(C)[C@@H](C5=CC(=O)OC5)CC[C@]4(O)[C@@H]3CC[C@]2(O)C1 [acetylstrophanthdin, acetyl-strophanthidin] | – | – | – | – | – | pIC50 [6, 12]: 6.93 |
| C[C@H]1O[C@@H](O[C@H]2[C@@H](O)C[C@H](O[C@H]3[C@@H](O)C[C@H](O[C@H]4CC[C@@]5(C)[C@H](CC[C@@H]6[C@@H]5CC[C@]5(C)[C@@H](C7=CC(=O)OC7)[C@@H](OC=O)C[C@]65O)C4)O[C@@H]3C)O[C@@H]2C)C[C@H](O)[C@@H]1O [16-Formylgitoxin] | 1.82 | 0.78 ± 0.01 ×10^−4 mol l^−1 | 0.84 | – | 110.9 ± 6.2 | – |
| C[C@H]1O[C@@H](O[C@H]2[C@@H](OC=O)C[C@H](O[C@H]3[C@@H](OC=O)C[C@H](O[C@H]4CC[C@@]5(C)[C@H](CC[C@@H]6[C@@H]5CC[C@]5(C)[C@@H](C7=CC(=O)OC7)[C@@H](OC=O)C[C@]65O)C4)O[C@@H]3C)O[C@@H]2C)C[C@H](OC=O)[C@@H]1OC=O [Pentaformylgitoxin] | 8.99 | 0.23 ± 0.00 ×10^−4 mol l^−1 | 1.85 | – | 1440.0 ± 118.3 | – |
| C[C@H]1O[C@@H](O[C@H]2CC[C@@]3(C)[C@H](CC[C@@H]4[C@@H]3CC[C@]3(C)[C@@H](C5=CC(=O)OC5)[C@@H](O)C[C@]43O)C2)C[C@H](O)[C@@H]1O [Gitoxigenin-mono-digitoxoside] | 0.83 | 2.56 ± 0.21 ×10^−4 mol l^−1 | 0.46 | – | 60.1 ± 10.0 | – |
| α,β-Diacetyldigoxin | 4.31 | 1.27 ± 0.02 ×10^−4 mol l^−1 | 1.16 | – | 392.0 ± 82.0 | – |
| CC(=O)O[C@H]1CC[C@@]2(C)[C@H](CC[C@@H]3[C@@H]2C[C@@H](OC(C)=O)[C@]2(C)[C@@H](C4=CC(=O)OC4)CC[C@]32O)C1 (single isomer, unassigned; diac) [digoxigenin3,12 diAC, digoxigenin 3,12 diAC] | – | – | – | – | – | Activity on IL-8 secretion ([6]; at a concentration of 1000 nM (1 micromolar)): entirely inactive; pIC50 [6, 12]: < 6.00 |
